Test results taken from PubChem BioAssay AID504503 (Southern Research Specialized Biocontainment Screening …, 2011).

The molecules below were run on human PBMC, CCR5-tropic HIV-1 replication, RT activity (assay: antiviral activity against R5-tropic HIV-1 in PBMC – cell-based, CCR5-tropic HIV-1, primary PBMCs, dose response (AID 504503)).

SMILES	IC50
Cc1c2c(=O)n(-c3nc4ccccc4s3)nc-2cc(O)n1Cc1ccc(F)cc1	6.8 µM
Cc1c2c(=O)n(-c3nc4ccccc4s3)nc-2cc(O)n1CCC(C)C	5.37 µM
Cc1c2c(=O)n(-c3nc4ccccc4s3)nc-2cc(O)n1CCc1ccc(O)cc1	1.29 µM
COc1ccc(CCn2c(O)cc3nn(-c4nc5ccccc5s4)c(=O)c-3c2C)cc1	5.11 µM
Cc1c2c(=O)n(-c3nc4ccccc4s3)nc-2cc(O)n1C1CC1	2.17 µM
Cc1c2c(=O)n(-c3nc4ccccc4s3)nc-2cc(O)n1Cc1cccnc1	2.82 µM
COc1ccc(Cn2c(O)cc3nn(-c4nc5ccccc5s4)c(=O)c-3c2C)cc1	4.88 µM
Cc1c2c(=O)n(-c3nc4ccccc4s3)nc-2cc(O)n1CCc1cccs1	16.6 µM
Cc1c2c(=O)n(-c3nc4ccccc4s3)nc-2cc(O)n1Cc1cccs1	10.5 µM
COc1ccccc1Cn1c(O)cc2nn(-c3nc4ccccc4s3)c(=O)c-2c1C	3.93 µM
Cc1c2c(=O)n(-c3nc4ccccc4s3)nc-2cc(O)n1Cc1ccncc1	1.6 µM
Cc1c2c(=O)n(-c3nc4ccccc4s3)nc-2cc(O)n1Cc1ccccc1Cl	5.16 µM
